Reference: patent US8053581B2, “Trisubstituted thiazole compounds, preparations methods, pharmaceutical compositions and medicals uses thereof” (Institute of Pharmacology and Toxicology Academy of …, priority 2006, dated 2011)

melting point [°C]	SMILES
177 to 178	COc1ccc(-c2nc(N)sc2Cc2ccccc2)cc1 [Example 1, 5-benzyl-4-(4-methoxy-phenyl)-thiazol-2-ylamine]
170 to 172	Nc1nc(-c2ccc(O)cc2)c(Cc2ccccc2)s1 [Example 2, 5-benzyl-4-(4-hydroxy-phenyl)-thiazol-2-ylamine]
146 to 147	COc1ccc(-c2nc(NC(=O)c3ccccc3)sc2Cc2ccccc2)cc1 [Example 3, N-[5-benzyl-4-(4-methoxy-phenyl)-thiazol-2-yl]-benzamide]
164 to 165	COc1ccc(-c2nc(NC(=O)c3ccc(F)cc3)sc2Cc2ccccc2)cc1 [Example 4, N-[5-benzyl-4-(4-methoxy-phenyl)-thiazol-2-yl]-4-fluoro-benzamide]
182 to 183	COc1ccc(-c2nc(NC(=O)c3ccc(Cl)cc3)sc2Cc2ccccc2)cc1 [Example 5, N-[5-benzyl-4-(4-methoxy-phenyl)-thiazol-2-yl]-4-chloro-benzamide]
209 to 210	COc1ccc(-c2nc(N)sc2Cc2ccc([N+](=O)[O-])cc2)cc1 [Example 6, 4-(4-methoxy-phenyl)-5-(4-nitro-benzyl)-thiazol-2-ylamine]
205 to 206	O=C(Nc1nc(-c2ccc(O)cc2)c(Cc2ccccc2)s1)c1ccc(F)cc1 [Example 7, N-[5-benzyl-4-(4-hydroxy-phenyl)-thiazol-2-yl]-4-fluoro-benzamide]
217 to 218	Nc1nc(-c2ccc(F)cc2)c(Cc2ccc([N+](=O)[O-])cc2)s1 [Example 9, 4-(4-fluoro-phenyl)-5-(4-nitro-benzyl)-thiazol-2-ylamine]
188 to 189	COc1ccc(-c2nc(NC(=O)c3ccc(F)cc3)sc2Cc2ccc([N+](=O)[O-])cc2)cc1 [Example 10, 4-fluoro-N-[4-(4-methoxy-phenyl)-5-(4-nitro-benzyl)-thiazol-2-yl]-benzamide]
120 to 122	O=C(Nc1nc(-c2ccc(F)cc2)c(Cc2ccc([N+](=O)[O-])cc2)s1)c1ccc(F)cc1 [Example 11, 4-fluoro-N-[4-(4-fluoro-phenyl)-5-(4-nitro-benzyl)-thiazol-2-yl]-benzamide]
179 to 180	COc1ccc(-c2nc(NC(=O)c3ccc(OC)c(OC)c3)sc2Cc2ccccc2)cc1 [Example 12, N-[5-benzyl-4-(4-methoxy-phenyl)-thiazol-2-yl]-3,4-dimethoxy-benzamide]
194 to 196	COc1ccc(-c2nc(NC(=O)c3ccc(C#N)cc3)sc2Cc2ccccc2)cc1 [Example 13, N-[5-benzyl-4-(4-methoxy-phenyl)-thiazol-2-yl]-4-cyano-benzamide]
190 to 192	COc1ccc(-c2nc(NC(=O)c3ccc(C#N)cc3)sc2Cc2ccc([N+](=O)[O-])cc2)cc1 [Example 14, 4-cyano-N-[4-(4-methoxy-phenyl)-5-(4-nitro-benzyl)-thiazol-2-yl]-benzamide]
244 to 245	N#Cc1ccc(C(=O)Nc2nc(-c3ccc(F)cc3)c(Cc3ccc([N+](=O)[O-])cc3)s2)cc1 [Example 15, 4-cyano-N-[4-(4-fluoro-phenyl)-5-(4-nitro-benzyl)-thiazol-2-yl]-benzamide]
154 to 155	COc1ccc(-c2nc(NC(=O)c3cc(F)cc(F)c3)sc2Cc2ccccc2)cc1 [Example 16, N-[5-benzyl-4-(4-methoxy-phenyl)-thiazol-2-yl]-3,5-difluoro-benzamide]
189 to 190	COc1ccc(-c2nc(NC(=O)c3cc(F)cc(F)c3)sc2Cc2ccc([N+](=O)[O-])cc2)cc1 [Example 17, 3,5-difluoro-N-[4-(4-methoxy-phenyl)-5-(4-nitro-benzyl)-thiazol-2-yl]-benzamide]
216 to 218	O=C(Nc1nc(-c2ccc(F)cc2)c(Cc2ccc([N+](=O)[O-])cc2)s1)c1cc(F)cc(F)c1 [Example 18, 3,5-difluoro-N-[4-(4-fluoro-phenyl)-5-(4-nitro-benzyl)-thiazol-2-yl]-benzamide]
128 to 129	COc1ccc(C(=O)Nc2nc(-c3ccc(F)cc3)c(Cc3ccc([N+](=O)[O-])cc3)s2)cc1OC [Example 20, N-[4-(4-fluoro-phenyl)-5-(4-nitro-benzyl)-thiazol-2-yl]-3,4-dimethoxy-benzamide]
175 to 176	COc1ccc(-c2nc(NC(=O)c3cc(F)cc(F)c3)sc2Cc2ccc(F)cc2)cc1 [Example 22, 3,5-difluoro-N-[5-(4-fluoro-benzyl)-4-(4-methoxy-phenyl)-thiazol-2-yl]-benzamide]
184 to 185	COc1ccc(-c2nc(NC(=O)c3ccc(F)cc3)sc2Cc2ccc(F)cc2)cc1 [Example 23, 4-fluoro-N-[5-(4-fluoro-benzyl)-4-(4-methoxy-phenyl)-thiazol-2-yl]-benzamide]
136 to 137	COc1ccc(-c2nc(N(C(=O)c3ccc(OC)c(OC)c3)C(=O)c3ccc(OC)c(OC)c3)sc2Cc2ccc(F)cc2)cc1 [Example 24]
191 to 192	COc1ccc(-c2nc(NC(=O)c3ccc(C#N)cc3)sc2Cc2ccc(F)cc2)cc1 [Example 25, 4-cyano-N-[5-(4-fluoro-benzyl)-4-(4-methoxy-phenyl)-thiazol-2-yl]-benzamide]
215 to 216	Nc1nc(-c2ccccc2)c(Cc2ccc([N+](=O)[O-])cc2)s1 [Example 26, 5-(4-nitro-benzyl)-4-phenyl-thiazol-2-ylamine]
58 to 59	COc1ccc(C(=O)Nc2nc(-c3ccc(OC)cc3)c(Cc3ccccc3)s2)cc1 [Example 27, N-[5-benzyl-4-(4-methoxy-phenyl)-thiazol-2-yl]-4-methoxy-benzamide]
106 to 108	COc1ccc(-c2nc(NC(=O)c3ccc(OC)c(OC)c3)sc2Cc2ccc([N+](=O)[O-])cc2)cc1 [Example 28, 3,4-dimethoxy-N-[4-(4-methoxy-phenyl)-5-(4-nitro-benzyl)-thiazol-2-yl]-benzamide]
105 to 106	COc1ccc(C(=O)Nc2nc(-c3ccccc3)c(Cc3ccc([N+](=O)[O-])cc3)s2)cc1OC [Example 29, 3,4-dimethoxy-N-[5-(4-nitro-benzyl)-4-phenyl-thiazol-2-yl]-benzamide]
140 to 142	COc1ccc(-c2nc(NC(=O)c3ccc(OC)c(OC)c3)sc2Cc2ccc(F)cc2)cc1 [Example 30, N-[5-(4-fluoro-benzyl)-4-(4-methoxy-phenyl)-thiazol-2-yl]-3,4-dimethoxy-benzamide]
196 to 197	COc1ccc(-c2nc(NC(=O)c3ccc(OC)cc3OC)sc2Cc2ccccc2)cc1 [Example 35, N-[5-benzyl-4-(4-methoxy-phenyl)-thiazol-2-yl]-2,4-dimethoxy-benzamide]
147 to 148	COc1ccc(-c2nc(NC(=O)c3ccccc3OC)sc2Cc2ccccc2)cc1 [Example 36, N-[5-benzyl-4-(4-methoxy-phenyl)-thiazol-2-yl]-2-methoxy-benzamide]
157 to 158	COc1ccc(-c2nc(NC(=O)c3cc(OC)c(OC)c(OC)c3)sc2Cc2ccccc2)cc1 [Example 37, N-[5-benzyl-4-(4-methoxy-phenyl)-thiazol-2-yl]-3,4,5-trimethoxy-benzamide]
